Experimental data taken from ChEMBL document CHEMBL1201862, “PubChem BioAssay data set” (2004).
Active and inactive are the calls of the source.

Experiments:
[1] = target: ATP-dependent molecular chaperone HSP82 (Candida albicans (strain WO-1) (Yeast), UniProt C4YTQ8); test: loss of DOC-induced GRE-beta-galactosidase reporter signal, dose response, Hsp90 inhibitor project, S. cerevisiae, luminescence (AID 2400); type: functional, cell-based;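 further: beta-galactosidase luminescence from glucocorticoid response element reporter as proxy for Hsp90 function; inhibitor potency where signal loss means Hsp90 inhibition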
[2] = C. albicans growth with fluconazole, confirmation, fluorescence, retest (AID 2467); type: functional, cell-based
[3] = NIH-3T3 fibroblast cytotoxicity, dose response, cytotoxicity control, cell-based, fluorescence, Alamar Blue, secondary assay (AID 2327); type: functional;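 further: NIH-3T3 mouse fibroblasts cultured with fluconazole at 8 µg/mL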
[4] = target: Serine/threonine-protein phosphatase (Candida dubliniensis (strain CD36 / CBS 7987 / NCPF 3949 / NRRLY-17841) (Yeast), UniProt B9W6M3); test: calcineurin pathway inhibitors in yeast reporter, dose response, S. cerevisiae, CDRE-lacZ, luminescence, secondary (AID 2388); type: functional, cell-based;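 further: yeast reporter cells carrying a calcineurin-responsive lacZ construct stimulated with calcium chloride; luminescent beta-galactosidase reporter signal in whole cells rather than isolated phosphatase activity; potency for inhibition where a drop in reporter signal means calcineurin blockade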
[5] = CEM21 lymphoblast cell cytotoxicity, dose response, cytotoxicity control for viral fusion inhibitor project, CellTiter-Glo luminescence, cherry-picked (AID 652042); type: functional, cell-based;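 further: potency for signal decrease meaning cytotoxicity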
[6] = inhibitors of HIV Env-driven cell fusion, dose response, cherry-pick (AID 652057); type: functional, cell-based
[7] = inhibitors of clade B AD8 Env fusion, dose response, cell-based, cherry-pick (AID 652062); type: functional;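 further: luciferase signal from cell-cell fusion driven by HIV-1 clade B AD8 Env; potency is for inhibitors of fusion seen as a drop in luminescence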
[8] = ZM109 Env clade C HIV-1 fusion inhibitors, dose response, HeLa effector, CEM target cells, luciferase, cherry-pick (AID 652058); type: functional, cell-based
HEK293 [9] = test: cells; conditions: Homo sapiens
HEK293 [10] = test: cells; conditions: Homo sapiens; remark: listed apart in the source
[11] = off-target signal loss in HeLa-CEM21 co-culture – HeLa F-luc CTL cells, cherry-picked, counter-screen for HIV-1 Env fusion inhibitor project, dose response (AID 652040); type: functional, cell-based;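 further: potency for signal decrease marking cytotoxic or nonspecific inhibition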
[12] = target: T1, Heat shock factor protein 1 (Mus musculus, UniProt P38532); test: inhibition of MG132-induced HSE-luciferase signal, confirmation, cell-based, NIH3T3, luminescence, dose retest (AID 2382); type: functional;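 further: NIH3T3 fibroblasts with HSF1-driven luciferase reporter stressed by proteasome inhibitor MG132; luminescence from HSF1-driven luciferase expression after 8 hours of MG132 stress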
T1 sequence (P38532 whole entry): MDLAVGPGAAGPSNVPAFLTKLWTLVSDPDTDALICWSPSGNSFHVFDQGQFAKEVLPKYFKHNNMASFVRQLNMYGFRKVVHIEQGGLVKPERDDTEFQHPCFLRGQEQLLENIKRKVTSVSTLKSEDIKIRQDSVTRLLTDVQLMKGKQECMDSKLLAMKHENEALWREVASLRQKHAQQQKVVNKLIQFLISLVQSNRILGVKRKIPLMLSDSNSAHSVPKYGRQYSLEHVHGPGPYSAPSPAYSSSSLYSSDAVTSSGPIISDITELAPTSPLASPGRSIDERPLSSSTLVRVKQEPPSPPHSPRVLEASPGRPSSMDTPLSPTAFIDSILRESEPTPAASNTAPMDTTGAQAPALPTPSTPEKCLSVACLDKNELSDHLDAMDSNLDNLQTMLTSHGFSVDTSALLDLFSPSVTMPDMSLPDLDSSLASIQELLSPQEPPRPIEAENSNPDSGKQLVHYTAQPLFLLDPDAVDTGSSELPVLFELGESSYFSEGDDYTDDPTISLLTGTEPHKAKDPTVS

[13] = Shn3 3'UTR reporter inhibitors, dose response, cell-based, Clone20 osteoblasts, firefly luciferase, cherry-picked (AID 624132); type: functional;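 further: firefly luciferase luminescence from reporter carrying the Shn3 3'UTR in osteoblasts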
[14] = growth suppression of PTEN-null colon cells, dose response, cell-based, HCT116 PTEN knockout (AID 1047); type: functional;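 further: HCT116 colon tumor cells with PTEN knocked out; cells exposed to compound for 60 hours before readout; potency for loss of cell viability measured by luminescence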
[15] = target: G-protein coupled receptor 55 (Homo sapiens, UniProt Q9Y2T6); test: GPR55 agonists via beta-arrestin recruitment, primary screen, imaging, U2OS cells, beta-arrestin-GFP redistribution (AID 1961); type: functional
INS1 = test: beta cell apoptosis inhibitors, cytokine rescue, dose response, luminescence, retest (AID 449756); type: functional, cell-based; conditions: Rattus norvegicus;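 further: cell death triggered by IL-1 beta plus TNF-alpha plus IFN-gamma mixture; protective hits raise ATP signal compared with cytokine alone wells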
BJ [16] = test: cytotoxicity toward BJ-TERT-LT-ST fibroblasts, dose response, cell-based, RAS-independent, luminescence (AID 1935); type: functional; conditions: Homo sapiens;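 further: BJ fibroblasts immortalized with TERT plus LT and ST oncogenes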
[17] = growth suppression of beta-catenin-knockout colon cells, dose response, cell-based, HCT116, human colon tumor (AID 1045); type: functional;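 further: HCT116 colon tumor cells with beta catenin knocked out; cells exposed to compound for 60 hours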
[18] = control 3'UTR Renilla luciferase suppression, dose response, counter-screen for Shn3 inhibitor project, cell-based, Clone20-Shn3RL, cherry-picked (AID 624133); type: functional
BJ [19] = test: cytotoxicity toward BJ-TERT fibroblasts, dose response, cell-based, RAS-independent, luminescence (AID 1933); type: functional; conditions: Homo sapiens
[20] = Luminescence Cell-Based Dose Retest to Confirm Inhibitors of Cancer Stem Cells. [Related pubchem assays (depositor defined):AID2717, AID2721]; type: functional; conditions: Homo sapiens
[21] = cytotoxicity toward DRD oncogenic fibroblasts, dose response, cell-based, non-viral oncogenic, luminescence (AID 1934); type: functional; conditions: Homo sapiens
BJ [22] = test: cells; type: functional, cell-based; conditions: Homo sapiens
BJ [23] = test: cytotoxicity toward Ras-transformed BJeLR fibroblasts, dose response, cell-based, alamar blue fluorescence, cherrypicked samples (AID 2631); type: functional; conditions: Homo sapiens;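 further: confirmatory dose-response assay in RAS-dependent BJ fibroblasts engineered with TERT, LT and ST, with cytotoxicity read by fluorescence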
[24] = target: T2, Corticotropin-releasing factor receptor 2/Corticotropin-releasing factor-binding protein (Homo sapiens, UniProt P24387+Q13324); test: activators of CRF receptor 2 with binding protein – uHTS hits, confirmation (AID 602473); type: functional; conditions: read-out: EC50_Mean
T2 sequence (Q13324 whole entry): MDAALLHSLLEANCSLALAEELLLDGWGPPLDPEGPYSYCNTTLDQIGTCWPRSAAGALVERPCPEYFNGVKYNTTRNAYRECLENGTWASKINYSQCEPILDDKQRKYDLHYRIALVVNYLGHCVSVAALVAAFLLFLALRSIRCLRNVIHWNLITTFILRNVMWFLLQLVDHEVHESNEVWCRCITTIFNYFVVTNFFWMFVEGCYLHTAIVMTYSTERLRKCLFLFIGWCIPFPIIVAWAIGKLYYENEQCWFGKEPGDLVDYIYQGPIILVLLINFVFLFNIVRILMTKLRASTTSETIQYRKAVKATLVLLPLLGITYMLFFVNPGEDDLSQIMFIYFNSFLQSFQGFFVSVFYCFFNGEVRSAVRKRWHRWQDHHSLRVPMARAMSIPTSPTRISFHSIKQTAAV
T2 sequence (P24387 whole entry): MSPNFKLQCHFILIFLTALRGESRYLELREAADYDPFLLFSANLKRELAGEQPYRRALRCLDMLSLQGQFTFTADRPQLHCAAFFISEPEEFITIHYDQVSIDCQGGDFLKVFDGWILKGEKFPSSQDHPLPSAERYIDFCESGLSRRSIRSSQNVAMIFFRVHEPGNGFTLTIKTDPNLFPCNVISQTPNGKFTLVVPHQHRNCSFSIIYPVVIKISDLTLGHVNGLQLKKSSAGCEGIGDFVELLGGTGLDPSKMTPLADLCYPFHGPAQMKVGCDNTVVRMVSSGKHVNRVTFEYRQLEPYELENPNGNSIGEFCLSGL

Escherichia coli = test: microbe, parasite or virus in culture
[25] = target: T2, Corticotropin-releasing factor receptor 2/Corticotropin-releasing factor-binding protein; test: Dose Response confirmation of uHTS hits for small molecule antagonists of the CRF-binding protein and CRF-R2 receptor complex.; type: functional; conditions: read-out: IC50_Mean
HEK293 [26] = test: inhibitors of LMP1-driven NF-kB reporter, dose response, cell-based, HEK293, luciferase, cherry-pick (AID 588343); type: functional; conditions: Homo sapiens
[27] = target: Latent membrane protein 1 (Human herpesvirus 4 (strain B95-8), UniProt P03230); test: TES1-eGFP NF-kB reporter inhibition versus Tet-On dsRED, dose response, selectivity assay for LMP1 NF-kB inhibitor project, imaging, HEK293T, dual-color eGFP/dsRED, cherry-picks (AID 588398); type: functional, cell-based
Vero = test: cells; type: functional; conditions: Chlorocebus sabaeus
Nonstructural protein 1 = Nonstructural protein 1 (Influenza A virus, UniProt Q194T2); type: functional, Influenza A virus (A/California/07/2009(H1N1))
Streptococcus = test: Group A Streptococcus viability loss, dose response, counter-screen for streptokinase expression inhibitor project, luminescence, BacTiterGlo (AID 1915); type: functional, organism-based;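 further: potency for reduction of bacterial viability or growth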
[28] = tested on: Streptococcus sp. 'group A'; test: growth inhibition of control SK(-) GAS strain, dose response, counter-screen for streptokinase expression inhibitor project, luminescence, kanamycin, BacTiterGlo, confirmation (AID 1900); type: functional, organism-based
ORF 73 = target: T3, ORF 73 (Human herpesvirus 8, UniProt O40947); test: inhibitors of C-LANA binding to LBS DNA, dose response, biochemical, fluorescence polarization, cherry-picked samples (AID 504725); design: species or system Human gammaherpesvirus 8;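 further: fluorescence polarization of a labeled DNA duplex reporting LANA DNA binding; potency is for inhibitors that block LANA binding to the DNA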
T3 sequence (O40947 whole entry): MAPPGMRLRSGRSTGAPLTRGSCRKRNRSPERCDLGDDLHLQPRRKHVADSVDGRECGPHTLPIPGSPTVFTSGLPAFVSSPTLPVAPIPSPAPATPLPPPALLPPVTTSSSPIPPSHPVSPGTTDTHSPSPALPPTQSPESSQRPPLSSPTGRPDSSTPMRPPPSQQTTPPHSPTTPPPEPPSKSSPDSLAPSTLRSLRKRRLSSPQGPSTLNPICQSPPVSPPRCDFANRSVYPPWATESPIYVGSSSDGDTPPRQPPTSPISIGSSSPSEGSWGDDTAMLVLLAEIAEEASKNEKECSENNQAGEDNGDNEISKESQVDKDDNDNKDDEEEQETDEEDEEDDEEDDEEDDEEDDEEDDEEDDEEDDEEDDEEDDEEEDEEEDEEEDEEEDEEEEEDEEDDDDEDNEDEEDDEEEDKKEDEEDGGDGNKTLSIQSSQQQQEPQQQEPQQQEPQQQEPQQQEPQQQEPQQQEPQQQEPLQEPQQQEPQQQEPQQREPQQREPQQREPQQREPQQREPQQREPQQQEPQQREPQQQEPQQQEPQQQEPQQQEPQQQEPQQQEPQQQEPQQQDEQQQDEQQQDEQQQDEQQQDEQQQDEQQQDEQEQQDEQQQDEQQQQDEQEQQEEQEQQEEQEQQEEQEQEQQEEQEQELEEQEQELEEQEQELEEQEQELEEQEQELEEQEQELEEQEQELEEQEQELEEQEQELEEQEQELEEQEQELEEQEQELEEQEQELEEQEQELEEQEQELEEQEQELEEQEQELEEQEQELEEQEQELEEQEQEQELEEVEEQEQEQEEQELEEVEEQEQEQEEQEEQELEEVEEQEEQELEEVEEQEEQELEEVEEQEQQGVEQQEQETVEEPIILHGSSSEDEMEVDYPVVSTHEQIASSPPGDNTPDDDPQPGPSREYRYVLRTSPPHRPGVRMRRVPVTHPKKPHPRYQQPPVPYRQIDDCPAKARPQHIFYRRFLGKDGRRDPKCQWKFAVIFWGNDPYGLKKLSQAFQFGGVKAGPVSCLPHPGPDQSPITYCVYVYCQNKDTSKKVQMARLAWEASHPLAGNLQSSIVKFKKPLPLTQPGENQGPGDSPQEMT

Keap1/Nrf2 = Keap1/Nrf2 (Homo sapiens, UniProt Q14145); test: Keap1-Nrf2 protein-protein interaction inhibitors, dose response, biochemical, fluorescence polarization, cherry-picked samples (AID 588683)
Keap1/Nrf2, sequence (Q16236 whole entry): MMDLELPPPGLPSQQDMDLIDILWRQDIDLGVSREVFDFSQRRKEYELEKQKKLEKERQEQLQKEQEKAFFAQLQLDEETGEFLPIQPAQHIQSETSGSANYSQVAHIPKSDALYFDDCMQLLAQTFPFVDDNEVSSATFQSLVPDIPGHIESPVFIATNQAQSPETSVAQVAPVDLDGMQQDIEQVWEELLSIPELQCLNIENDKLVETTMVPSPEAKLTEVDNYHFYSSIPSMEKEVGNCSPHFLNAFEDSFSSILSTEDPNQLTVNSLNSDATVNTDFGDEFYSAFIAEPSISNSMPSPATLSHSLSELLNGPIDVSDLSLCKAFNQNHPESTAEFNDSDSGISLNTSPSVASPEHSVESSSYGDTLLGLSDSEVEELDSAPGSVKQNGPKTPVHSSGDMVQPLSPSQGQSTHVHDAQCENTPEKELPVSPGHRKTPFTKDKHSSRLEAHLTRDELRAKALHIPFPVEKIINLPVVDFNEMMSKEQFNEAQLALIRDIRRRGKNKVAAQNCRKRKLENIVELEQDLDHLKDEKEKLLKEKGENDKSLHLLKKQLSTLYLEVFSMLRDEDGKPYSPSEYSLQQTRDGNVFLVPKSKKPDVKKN
Keap1/Nrf2, sequence (Q14145 whole entry): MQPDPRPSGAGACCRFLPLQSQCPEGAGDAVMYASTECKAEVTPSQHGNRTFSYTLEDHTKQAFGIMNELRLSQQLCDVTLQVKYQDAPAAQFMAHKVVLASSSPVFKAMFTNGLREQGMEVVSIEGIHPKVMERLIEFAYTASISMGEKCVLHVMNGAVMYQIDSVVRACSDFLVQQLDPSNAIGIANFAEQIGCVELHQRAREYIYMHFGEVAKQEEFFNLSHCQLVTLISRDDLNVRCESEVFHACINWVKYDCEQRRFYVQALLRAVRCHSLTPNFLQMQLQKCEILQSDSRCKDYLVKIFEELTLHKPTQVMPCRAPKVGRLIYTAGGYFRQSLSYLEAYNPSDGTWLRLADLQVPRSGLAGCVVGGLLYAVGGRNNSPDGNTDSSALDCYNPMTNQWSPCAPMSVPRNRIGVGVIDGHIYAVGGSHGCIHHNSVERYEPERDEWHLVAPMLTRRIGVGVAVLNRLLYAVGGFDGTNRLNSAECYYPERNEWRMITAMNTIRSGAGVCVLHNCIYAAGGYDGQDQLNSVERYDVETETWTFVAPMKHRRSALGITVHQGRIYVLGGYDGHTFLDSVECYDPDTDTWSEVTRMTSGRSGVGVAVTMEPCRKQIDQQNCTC

Serine/threonine-protein phosphatase, sequence (B9W6M3 whole entry, the tested form may be a part): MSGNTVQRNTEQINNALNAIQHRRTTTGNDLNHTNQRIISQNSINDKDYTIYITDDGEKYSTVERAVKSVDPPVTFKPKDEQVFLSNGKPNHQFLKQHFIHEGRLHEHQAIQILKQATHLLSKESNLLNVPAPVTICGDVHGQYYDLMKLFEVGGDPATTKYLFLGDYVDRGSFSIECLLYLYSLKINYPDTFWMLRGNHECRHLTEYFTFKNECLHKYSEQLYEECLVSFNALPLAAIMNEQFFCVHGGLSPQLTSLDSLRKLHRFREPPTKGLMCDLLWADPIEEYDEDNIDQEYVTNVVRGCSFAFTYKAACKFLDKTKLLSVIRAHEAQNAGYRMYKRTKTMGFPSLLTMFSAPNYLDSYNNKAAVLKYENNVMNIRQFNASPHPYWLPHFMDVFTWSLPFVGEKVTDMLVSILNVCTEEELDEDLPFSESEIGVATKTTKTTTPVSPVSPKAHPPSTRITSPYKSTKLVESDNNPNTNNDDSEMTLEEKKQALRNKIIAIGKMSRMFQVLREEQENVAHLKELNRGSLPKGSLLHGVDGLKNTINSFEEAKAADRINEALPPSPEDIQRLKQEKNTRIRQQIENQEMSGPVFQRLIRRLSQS
ATP-dependent molecular chaperone HSP82, sequence (C4YTQ8 whole entry): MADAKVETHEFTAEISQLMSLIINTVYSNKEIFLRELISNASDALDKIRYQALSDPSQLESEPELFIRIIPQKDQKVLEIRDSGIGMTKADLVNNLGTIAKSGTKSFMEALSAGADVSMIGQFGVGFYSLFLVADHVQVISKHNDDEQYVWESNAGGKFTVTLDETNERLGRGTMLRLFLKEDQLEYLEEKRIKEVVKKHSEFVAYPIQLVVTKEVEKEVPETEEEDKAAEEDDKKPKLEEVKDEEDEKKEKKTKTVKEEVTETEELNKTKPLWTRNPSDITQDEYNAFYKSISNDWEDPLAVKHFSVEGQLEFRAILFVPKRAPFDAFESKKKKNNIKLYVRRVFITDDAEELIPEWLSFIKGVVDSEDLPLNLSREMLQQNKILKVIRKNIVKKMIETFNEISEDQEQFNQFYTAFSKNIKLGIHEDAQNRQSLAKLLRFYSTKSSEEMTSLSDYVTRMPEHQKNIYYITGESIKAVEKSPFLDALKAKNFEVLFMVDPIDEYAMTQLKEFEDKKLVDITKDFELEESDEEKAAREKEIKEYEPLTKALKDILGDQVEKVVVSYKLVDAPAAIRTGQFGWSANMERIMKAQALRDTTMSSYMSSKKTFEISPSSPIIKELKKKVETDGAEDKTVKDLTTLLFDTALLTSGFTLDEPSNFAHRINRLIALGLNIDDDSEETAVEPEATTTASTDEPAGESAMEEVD
G-protein coupled receptor 55, sequence (Q9Y2T6 whole entry): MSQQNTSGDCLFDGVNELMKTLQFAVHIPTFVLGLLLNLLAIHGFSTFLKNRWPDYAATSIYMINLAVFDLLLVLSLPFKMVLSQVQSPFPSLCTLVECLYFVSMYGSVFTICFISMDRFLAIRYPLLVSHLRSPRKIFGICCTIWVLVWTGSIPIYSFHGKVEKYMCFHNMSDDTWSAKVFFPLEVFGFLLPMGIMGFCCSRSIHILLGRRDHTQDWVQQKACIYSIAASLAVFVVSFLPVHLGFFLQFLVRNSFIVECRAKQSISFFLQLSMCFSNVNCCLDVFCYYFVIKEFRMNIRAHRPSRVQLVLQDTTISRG
Nonstructural protein 1, sequence (Q194T2 whole entry): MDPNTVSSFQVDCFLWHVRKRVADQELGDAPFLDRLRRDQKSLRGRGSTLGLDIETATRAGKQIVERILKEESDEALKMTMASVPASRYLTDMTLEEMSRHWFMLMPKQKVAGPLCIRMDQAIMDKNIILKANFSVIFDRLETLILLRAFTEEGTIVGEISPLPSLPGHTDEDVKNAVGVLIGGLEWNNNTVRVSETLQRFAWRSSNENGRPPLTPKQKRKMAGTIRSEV
Latent membrane protein 1, sequence (P03230 whole entry): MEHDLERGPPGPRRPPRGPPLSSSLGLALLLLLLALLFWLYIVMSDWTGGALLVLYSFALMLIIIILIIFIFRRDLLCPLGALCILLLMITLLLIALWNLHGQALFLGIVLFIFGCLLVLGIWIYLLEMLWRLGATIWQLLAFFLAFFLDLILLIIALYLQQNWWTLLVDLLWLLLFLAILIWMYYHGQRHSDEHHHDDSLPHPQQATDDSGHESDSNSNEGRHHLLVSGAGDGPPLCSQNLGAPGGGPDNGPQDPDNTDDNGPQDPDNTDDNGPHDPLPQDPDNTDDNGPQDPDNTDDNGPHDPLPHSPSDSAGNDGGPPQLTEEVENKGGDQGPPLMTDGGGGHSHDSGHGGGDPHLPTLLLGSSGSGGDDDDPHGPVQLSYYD

Structure (SMILES): CCCCOc1cccc(C2C(C(=O)c3ccc(C)o3)=C(O)C(=O)N2Cc2ccco2)c1 (configuration not stated)
- EC50 [1]: 16.6 µM (active)
- EC50 [2]: 0.398 µM (active)
- EC50 [3]: > 150 µM (inactive)
- EC50 [4]: > 180 µM (inactive)

Structure (SMILES): COC(=O)c1c(NC(=O)CN2CCC3(O)CCCCC3C2c2cc(OC)ccc2OC)sc(C)c1C (configuration not stated)
- AC50 [5]: 48.1 µM (active)
- AC50 [6]: 0.472 µM (active)
- AC50 [7]: 3.62 µM (active)
- AC50 [8]: 1.15 µM (active)
- EC50 (HEK293 [9]): > 59.7 µM (inactive)
- EC50 (HEK293 [10]): > 59.7 µM (inactive)
- AC50 [11]: 1.21 µM (active)

Structure (SMILES): CCOC(=O)/C(=C\c1ccc([N+](=O)[O-])cc1)C(=O)c1cc(C(C)=O)c(Nc2ccccc2)s1
- EC50 [12]: 3.16 µM (inconclusive)
- AC50 [13]: 2.47 µM (active)
- EC50 [14]: 4.17 µM (active)
- EC50 [15]: > 32 µM (inactive)
- AC50 (INS1): 1.94 µM (active)
- EC50 (BJ [16]): 2.18 µM (inconclusive)
- EC50 [17]: 3.81 µM (active)
- AC50 [18]: 6.21 µM (active)
- EC50 (BJ [19]): 2.12 µM (active)
- AC50 [20]: 0.685 µM (active)
- EC50 [21]: 3.32 µM (active)
- EC50 (BJ [22]): 3.1 µM (active)
- EC50 (BJ [23]): 1.49 µM (active)

Structure (SMILES): COC(=O)c1ccc(OC(=O)c2nn(C)cc2Cl)c(OC)c1
- EC50 [24]: > 53 µM (inactive)
- AC50 (Escherichia coli): 42.7 µM (active)
- IC50 [25]: > 47.1 µM (inactive)

Structure (SMILES): CCc1cc(C(=O)NN=C(S)Nc2cc(C)ccc2C)cs1
- EC50 [1]: > 150 µM (inactive)
- EC50 [2]: 0.382 µM (active)
- EC50 [3]: > 150 µM (inactive)
- EC50 [4]: > 180 µM (inactive)

Structure (SMILES): O=C1CN(c2nc(-c3cccnc3)nc3sc4c(c23)CCCC4)CCN1
- EC50 (HEK293 [9]): > 59.6 µM (inactive)
- EC50 (HEK293 [10]): > 59.6 µM (inactive)

Structure (SMILES): O=C(CF)N(O)c1ccc(C=Cc2ccccc2)cc1
- AC50 (HEK293 [26]): 0.732 µM (active)
- AC50 [27]: 0.734 µM (active)

Structure (SMILES): C/C(=N\NC(=O)c1cccc2ccccc12)c1ccccn1
- CC50 (Vero): 3.56 µM (active)
- IC50 (Nonstructural protein 1): 7.25 µM (active)
- EC50 (Streptococcus): 6.39 µM (active)
- EC50 (BJ [16]): 3.87 µM (active)
- EC50 (BJ [19]): 5.73 µM (active)
- EC50 [28]: 2.88 µM (active)
- EC50 [21]: 2.4 µM (active)
- EC50 (BJ [22]): 3.45 µM (active)
- EC50 (BJ [23]): 0.497 µM (inconclusive)

Structure (SMILES): O=C(c1ccccc1)c1ccc(O)cc1O [2,4-DIHYDROXYBENZOPHENONE]
- AC50 (ORF 73): 5.38 µM (active)
- AC50 (Keap1/Nrf2): 11.1 µM (active)

Structure (SMILES): CC1CCc2c(N3CCC(O)CC3)c(F)cc3c(=O)c(C(=O)O)cn1c23 (configuration not stated) [NADIFLOXACIN]
- AC50 (Escherichia coli): 1.3 µM (active)
